Data set [1] is described as follows: (§1) Cytotoxicity against human GTL16 cells expressing MET assessed as inhibition of anchorage-independent cell growth treated every 3 days for 2 weeks by MTT assay. Particulars: GTL 16. Type of data set: functional, cell-based. A general note: Formazan colour is commonly taken as a measure of viable cells.
For a further data set, the system named is MDCK. Put plainly: Cytotoxicity against MDCK cells at IC50. Type of data set: cell-based, Canis lupus familiaris. Particulars: dog.
Another data set deals with GTL 16. The data set is described as §1. Type of data set: functional, cell-based.
A further data set deals with H1437. Put plainly: Inhibition of HGF-induced Met R988C mutant phosphorylation at Tyr1234 and Tyr1235 in human H1437 cells at 10 uM by immunoblotting. Background: A western blot detects proteins with antibodies after separation by electrophoresis.
In the next data set the test system is NCI-H1437. The data set is described as follows: Cytotoxicity against human NCI-H1437 cells assessed as inhibition of anchorage-independent cell growth treated every 3 days for 2 weeks by MTT assay. Type of data set: functional, cell-based.
The target in data set [2] is Hepatocyte growth factor receptor (Canis lupus familiaris) (UniProt Q75ZY9). Put plainly: Inhibition of HGF-induced Met phosphorylation at Tyr1234 and Tyr1235 in MDCK cells at 10 uM by immunoblotting. Type of data set: cell-based.
Sequence of Hepatocyte growth factor receptor (Canis lupus familiaris) (Q75ZY9 whole entry): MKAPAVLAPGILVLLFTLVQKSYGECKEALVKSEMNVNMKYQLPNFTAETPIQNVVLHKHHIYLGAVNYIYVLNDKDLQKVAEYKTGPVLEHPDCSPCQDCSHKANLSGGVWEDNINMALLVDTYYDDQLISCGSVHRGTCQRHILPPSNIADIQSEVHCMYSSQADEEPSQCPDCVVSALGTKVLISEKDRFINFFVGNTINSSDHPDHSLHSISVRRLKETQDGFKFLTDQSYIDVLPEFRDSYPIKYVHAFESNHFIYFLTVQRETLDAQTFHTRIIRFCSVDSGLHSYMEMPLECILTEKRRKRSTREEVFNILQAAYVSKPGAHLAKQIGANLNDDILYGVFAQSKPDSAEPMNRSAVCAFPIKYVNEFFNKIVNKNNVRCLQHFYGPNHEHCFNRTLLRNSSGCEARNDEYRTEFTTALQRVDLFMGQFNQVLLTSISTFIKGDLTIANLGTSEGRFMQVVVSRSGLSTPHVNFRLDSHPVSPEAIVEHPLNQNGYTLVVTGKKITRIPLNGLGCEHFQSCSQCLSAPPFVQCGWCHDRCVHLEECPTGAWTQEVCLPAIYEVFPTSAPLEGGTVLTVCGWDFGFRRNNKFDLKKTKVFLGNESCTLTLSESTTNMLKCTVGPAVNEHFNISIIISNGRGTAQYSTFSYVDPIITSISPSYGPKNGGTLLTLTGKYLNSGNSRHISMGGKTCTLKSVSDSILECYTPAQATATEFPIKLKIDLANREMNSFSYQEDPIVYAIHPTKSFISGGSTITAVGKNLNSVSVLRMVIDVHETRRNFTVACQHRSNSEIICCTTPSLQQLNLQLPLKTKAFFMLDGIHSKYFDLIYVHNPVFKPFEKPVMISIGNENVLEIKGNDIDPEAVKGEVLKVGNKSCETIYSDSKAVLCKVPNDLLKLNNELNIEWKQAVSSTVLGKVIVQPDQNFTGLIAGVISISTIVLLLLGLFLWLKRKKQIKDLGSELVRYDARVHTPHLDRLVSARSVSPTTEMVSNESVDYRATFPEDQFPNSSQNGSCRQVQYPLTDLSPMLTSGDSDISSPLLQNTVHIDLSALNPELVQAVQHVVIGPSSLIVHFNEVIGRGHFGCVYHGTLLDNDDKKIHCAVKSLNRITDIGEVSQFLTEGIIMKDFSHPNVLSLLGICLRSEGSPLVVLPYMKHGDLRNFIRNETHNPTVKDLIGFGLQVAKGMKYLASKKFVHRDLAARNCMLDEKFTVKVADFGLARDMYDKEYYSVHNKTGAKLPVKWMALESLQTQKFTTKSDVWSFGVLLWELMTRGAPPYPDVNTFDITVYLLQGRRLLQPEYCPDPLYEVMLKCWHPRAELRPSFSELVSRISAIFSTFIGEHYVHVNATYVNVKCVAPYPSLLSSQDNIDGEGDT

The source made the active and inactive calls. No cut-off for these calls is given here.

Consider `O=C(Cc1cc(C(F)(F)F)cc(C(F)(F)F)c1)N[C@H](Cc1ccccc1)C(=O)Nc1ccc(-c2cn3c(n2)sc2ccccc23)cc1`, for which, in data set [1], the IC50 turned out to be 1190 nM. Besides, in the data set on MDCK, the Activity entry is recorded as “Non-toxic”.
For `O=C(Cc1cc(C(F)(F)F)cc(C(F)(F)F)c1)NC(Cc1ccccc1)c1cn(-c2ccc(-c3cn4c(n3)sc3ccccc34)cc2)nn1` (stereo not given), the IC50 in data set [1] was found to be 8500 nM. Besides, the “growth inhibition (GI)” value in the data set with GTL 16 and in the data set with NCI-H1437 was “Dose-dependent effect” throughout. For the same compound, the inhibition result (in the data set with H1437; in data set [2]) was “Active” throughout. In addition, the Activity result in the data set with MDCK is given as “Non-toxic”.
As for `O=C(Cc1cc(C(F)(F)F)cc(C(F)(F)F)c1)N[C@@H](Cc1ccccc1)C(=O)Nc1ccc(-c2cn3c(n2)sc2ccccc23)cc1`, the IC50 in data set [1] was 800 nM. In the data set with MDCK, the Activity result is “Non-toxic”.

For orientation: IC50 means the concentration at which inhibition is half-maximal.
